The text below walks through data of patent US10954262B2, “Tunicamycin analogues” (Oxford University Innovation Limited, priority 2017, dated 2021).

Data set [1] has as its system Bacillus cereus (ATCC11778). Briefly: Kirby-Bauer disc diffusion susceptibility test. The format is cell-based. The following applies: ATCC11778, 6 mm disc impregnated with 5 μg, 20 hours, 35° C., read-out: Diffusion distance (zone diameter). As for the experimental part: (§1) Bioactivity was assessed using the Kirby-Bauer disc diffusion susceptibility test. Oxoid Blank Discs were impregnated with the desired test substance. A 0.5 McFarland standard inoculum was prepared by adding 3-5 single colonies to 10 mL MH broth in a 15 mL falcon tube and standardised to 0.5 McFarland standard. The inoculum was used within 10 minutes. A sterile cotton swab was dipped in the inoculum, gently pressed against the side of the tube to remove excess liquid, and generously streaked on MH agar plate to fully cover the plate. The impregnated disc was carefully placed on the agar. The plate was incubated at 35° C. for 20 hrs overnight. A digital calliper was used to measure the zone diameter. The recorded zone diameter is an average of three zone diameters measured of one zone.
(§2) Each 6 mm disc was impregnated with 5 μg of the relevant compound (TM, A, B, C, D, or any of E1 to E7), and the diffusion zone recorded after 20 hours.
(§3) Results are shown for E2 to E7 and TM. Values quoted are zone diameters, with larger numbers indicating higher antibacterial activity.
(A growth-free zone around the sample is the usual read-out of agar diffusion tests.)

In data set [2] the test system is Bacillus subtilis (EC1524). Briefly: Kirby-Bauer disc diffusion susceptibility test. The class given is cell-based. The following applies: 6 mm disc impregnated with 5 μg, 20 hours, 35° C., read-out: Diffusion distance (zone diameter). As for the experimental part:
as §1, §2, §3

Data set [3] has as its system Bacillus subtilis (EC1524). In words: microbe, parasite or virus in culture. The class given is cell-based.
Data set [4] has as its system Bacillus cereus (ATCC11778). In words: microbe, parasite or virus in culture. The class given is cell-based.
Data set [5] deals with Pseudomonas aeruginosa (ATCC27853). In words: Kirby-Bauer disc diffusion susceptibility test. The conditions noted are these: 6 mm disc, 5 μg. The class given is cell-based. As for the experimental part:
as §1, §2
Underlying scaffolds A, B, C and D and lipid-varied analogues E1 to E7 were assayed for potency against Pseudomonas aeruginosa (ATCC27853), according to the methods of Example 2. Results of the Kirby-Bauer disc diffusion susceptibility test conducted using Pseudomonas aeruginosa (ATCC27853) as a test organism are shown in FIG. 2 and in Table 3. MIC, MBC and IC50 values were also obtained as in Example 2.

The test system is the same in data set [6]. Briefly: microbe, parasite or virus in culture. The format is cell-based.
The subject of data set [7] is HEK293 kidney cells. In words: Cell proliferation assay / cell morphology (cytotoxicity). The format is cell-based, human. The conditions noted are these: HEK293. As for the experimental part: (§4) Underlying scaffolds A, B, C and D and lipid-varied analogues E1 to E7 were assayed for cytotoxicity towards human liver cells (Hep2G) and human kidney cells (HEK293).
(§5) Mammalian cells were cultured in DMEM medium supplemented with 10% heat inactivated fetal bovine serum (FBS, v/v). The cultures were maintained in a humidified incubator at 37° C. in 5% CO2/95% air. FBS was reduced to 2% for the cell proliferation assay.
(§6) In sterile 96-well plate, each well was seeded with 1×10^5 cells. The cells were then grown confluent overnight in 100 μL DMEM with 10% FBS. The medium was replenished with DMEM with 2% FBS and added vehicle control or test substance the next day. For test substance in methanol, stock was added to 25 μL of DMEM with 2% FBS or PBS and placed in a laminar flow hood to let the methanol evaporate (about 1-3 hrs). Once the methanol has evaporated, DMEM with 2% FBS was added to final volume of 100 μL of desired test concentration. […] Cells were grown for additional 24 hrs. The cell viability was determined by using a Promega CellTiter 96 AQueous One Solution Cell Proliferation Assay System following the manufacturer's protocol.

Data set [8] relates to HepG2 liver cells. The data set is described as above. The format is cell-based, human. The conditions noted are these: HepG2. The method, then:
as §4, §5, §6

Data set [9] is described as follows: Single-dose PK study, intraperitoneal injection. The format is in vivo. The conditions noted are these: mice. As for the experimental part:
The initial dose was 30 mg/kg. The x-axis indicates the time in hours after the initial injection and the y-axis indicates the blood plasma concentration of TM-8 in μg/mL in the mice.
A single-dose PK study was done using 16 mice at a dose of 30 mg/kg for the TM-8 analogue, di-N-octanoyl-tunicamycin. […] This study confirmed that the formulation was suitable for injections, and the drug is stable enough in physiological conditions.

The structures appear in SMILES notation. Values after ≈ are worked out from the molar mass of the structure shown. Where only a bound is given, the exact number is not on record here.

With `CCCCCCCC(=O)NC1C(OC2OC(C[C@@H](O)[C@H]3O[C@@H](n4ccc(=O)[nH]c4=O)[C@H](O)[C@@H]3O)C(O)C(O)[C@H]2NC(=O)CCCCCCC)OC(CO)[C@@H](O)C1O` (stereo partly shown) [Compound E3, Di-N-octanoyl-tunicamycin], the zone of inhibition at 5 µg/disc came out at 12 mm in [1] and 16 mm in [2]. Also, the MIC came to 0.78 µg/mL (≈ 0.952 µM) in data set [3] (MH broth, 35° C., 20-24 hours); 6.25 µg/mL (≈ 7.63 µM) in data set [4] (MH broth, 35° C., 20-24 hours); 100 µg/mL (≈ 122 µM) in data set [6]. For the same compound, the figures for the IC50 in [3] (OD600 dose-response curve), in data set [4] (OD600 dose-response curve) and in [6] were 0.201 µg/mL (≈ 0.246 µM), 0.782 µg/mL (≈ 0.955 µM) and 46.5 µg/mL (≈ 56.8 µM), respectively. Besides, the values for the MBC in data set [3] (additional 20 hours on MH agar), in data set [4] (additional 20 hours on MH agar) and in data set [6] were above 0.98 µg/mL, 50 µg/mL (≈ 61.1 µM) and above 400 µg/mL, respectively. In addition, the Diffusion distance in data set [5] was 9 mm. Moreover, the Minimum lethal dose in data set [7] and in [8] was above 400 µg/mL throughout. Moreover, the “Detectability in blood plasma” value in data set [9] (6 hours after intraperitoneal injection, 30 mg/kg) is “easily detectable”. Moreover, the “Stability in physiological conditions” value in data set [9] (30 mg/kg intraperitoneal) was “stable enough”.

As a reminder, the IC50 is the concentration at which inhibition is half-maximal. A lower IC50 goes with higher potency.
